Test results as given in US11753409B2, “Crystalline salts of a B-RAF kinase inhibitor” (Xynomic Pharmaceuticals, Inc., priority 2017, dated 2023).
“Also recorded” adds a separate entry of the source. Like-named read-outs stand apart in the source and are kept apart here.

How the values were obtained:
[1] = Sorption-desorption (DVS) of the salts with XRPD before and after; type: physicochemical
Protocol: Dynamic Vapor Sorption (DVS) was performed in a IGAsorp Water Sorption Analyzer from Hiden Isochema. Adsorption and desorption isotherms were performed at 25° C. with 10% RH step intervals ranging from 0% relative humidity up to 90% relative humidity.

[2] = Equilibrium solubility in various aqueous media (solubility after 2 h); type: physicochemical; details: for solubility at 2 h: thermodynamic from solid
Protocol: Saturated solutions are prepared in well plates by adding an appropriate volume of selected aqueous media (typically in the range of 0.25-1.5 mL) into each well which contains a known quantity of solid drug substance (typically in the range 0.5-5.0 mg). The wells are shaken or stirred for a predefined time period (typically in a range of 2-24 h) and then filtered using appropriate filter membranes (typically PTFE-filters with 0.45 μm pore size). Filter absorption is avoided by discarding the first few drops of filtrate. The amount of dissolved drug substance is determined by UV spectroscopy. In addition, the pH of the aqueous saturated solution is measured using a glass-electrode pH meter.
The equilibrium solubility of N-(3-(5-((1-Ethylpiperidin-4-yl)(methyl)amino)-3-(pyrimidin-5-yl)-1H-pyrrolo[3,2-b]pyridin-1-yl)-2,4-difluorophenyl)propane-1-sulfonamide monohydrochloride salt in various media was determined.
The solubility of N-(3-(5-((1-Ethylpiperidin-4-yl)(methyl)amino)-3-(pyrimidin-5-yl)-1H-pyrrolo[3,2-b]pyridin-1-yl)-2,4-difluorophenyl)propane-1-sulfonamide monosuccinate salt in various media was determined.

[3] = Intrinsic dissolution rate, rotating disc method; type: physicochemical; details: pH of medium 1.0 (0.1M HCl), 37° C.
[4] = Milling and compression stress followed by XRPD; type: physicochemical
Protocol: FIG. 20 is a plot of the XRPD of N-(3-(5-((1-ethylpiperidin-4-yl)(methyl)amino)-3-(pyrimidin-5-yl)-1H-pyrrolo[3,2-b]pyridin-1-yl)-2,4-difluorophenyl)propane-1-sulfonamide monohydrochloride salt following milling in a swing mill for 10 min. at 30 rps.
FIG. 21 is a plot of the XRPD of N-(3-(5-((1-ethylpiperidin-4-yl)(methyl)amino)-3-(pyrimidin-5-yl)-1H-pyrrolo[3,2-b]pyridin-1-yl)-2,4-difluorophenyl)propane-1-sulfonamide monohydrochloride salt following compression at 2000 N for 1 s to a tablet (diameter-5 mm).
FIG. 31 is a plot of the XRPD of N-(3-(5-((1-ethylpiperidin-4-yl)(methyl)amino)-3-(pyrimidin-5-yl)-1H-pyrrolo[3,2-b]pyridin-1-yl)-2,4-difluorophenyl)propane-1-sulfonamide monosuccinate salt following milling in a swing mill for 10 min. at 30 rps.
FIG. 32 is a plot of the XRPD of N-(3-(5-((1-ethylpiperidin-4-yl)(methyl)amino)-3-(pyrimidin-5-yl)-1H-pyrrolo[3,2-b]pyridin-1-yl)-2,4-difluorophenyl)propane-1-sulfonamide monosuccinate salt following compression at 2000 N for 1 s to a tablet (diameter-5 mm).

[5] = Pharmacokinetics following oral administration to rats; type: in vivo, HsdHan:WIST Norway rats; details: rat; for AUD: AUD range 0-24 h
Protocol: The pharmacokinetics of N-(3-(5-((1-ethylpiperidin-4-yl)(methyl)amino)-3-(pyrimidin-5-yl)-1H-pyrrolo[3,2-b]pyridin-1-yl)-2,4-difluorophenyl)propane-1-sulfonamide hydrochloride salt and N-(3-(5-((1-ethylpiperidin-4-yl)(methyl)amino)-3-(pyrimidin-5-yl)-1H-pyrrolo[3,2-b]pyridin-1-yl)-2,4-difluorophenyl)propane-1-sulfonamide […] following oral administration at 40 mg and 80 mg (dose calculated as the free base) to HsdHan:WIST Norway rats. Each salt was administered to 3 animals.

[6] = Intrinsic dissolution rate, rotating disc method; type: physicochemical
Protocol: The intrinsic dissolution rate of 3-(5-((1-ethylpiperidin-4-yl)(methyl)amino)-3-(pyrimidin-5-yl)-1H-pyrrolo[3,2-b]pyridin-1-yl)-2,4-difluorophenyl)propane-1-sulfonamide salts was determined in aqueous media covering a range of pH 1.1-7.4 using the rotating disc method which maintains a constant surface area.
The drug substance (5 mg) was compressed at 356.1 Newtons for 60 s to form a disk. These disks were mounted to sample holders which fit into a miniaturized dissolution testing apparatus. The dissolution media were stirred at 200 rpm at a temperature of 37° C. Samples were automatically withdrawn every second minute from the dissolution vessel and assayed by UV spectrophotometry.
The intrinsic dissolution rate of N-(3-(5-((1-ethylpiperidin-4-yl)(methyl)amino)-3-(pyrimidin-5-yl)-TH-pyrrolo[3,2-b]pyridin-1-yl)-2,4-difluorophenyl)propane-1-sulfonamide monohydrochloride salt in various media was measured in media at various pH values.
The intrinsic dissolution rate of N-(3-(5-((1-ethylpiperidin-4-yl)(methyl)amino)-3-(pyrimidin-5-yl)-1H-pyrrolo[3,2-b]pyridin-1-yl)-2,4-difluorophenyl)propane-1-sulfonamide monosuccinate salt in various media was measured in media at various pH values.

[7] = Heating to 170° C. and cooling to room temperature; type: physicochemical; details: heated to 170° C., cooled to room temperature
Protocol: Further XRPD, TGA, DSC and ^1H NMR analyses were performed after heating succinate Form A to 170° C. and then cooling to room temperature.

CCCS(=O)(=O)Nc1ccc(F)c(-n2cc(-c3cncnc3)c3nc(N(C)C4CCN(CC)CC4)ccc32)c1F.O=C(O)CCC(=O)O [Monosuccinate Salt, N-(3-(5-((1-Ethylpiperidin-4-yl)(methyl)amino)-3-(pyrimidin-5-yl)-1H-pyrrolo[3,2-b]pyridin-1-yl)-2,4-difluorophenyl)propane-1-sulfonamide monosuccinate salt]
Change in structure (XRPD) after sorption-desorption experiment ([1]; XRPD before and after, monosuccinate salt): no change in crystallinity or polymorphic form; also recorded: no significant change in structure occurred
Reversible weight gain (isotherm sorption-desorption) ([1]; range from 0-80% relative humidity): approximately 0.25%
Reversible weight gain (isotherm sorption-desorption) ([1]; range from 0-90% relative humidity): approximately 0.4%
Weight gain (sorption-desorption) ([1]; range from 10-90% relative humidity, scale-up sample): approximately 1.2%
solubility at 2 h ([2]; 0.01 M HCl, simulated gastric fluid, HCl (0.01M)): > 50 µg/mL
solubility at 2 h ([2]; 0.1 M HCl, simulated gastric fluid, HCl (0.1M)): 200 µg/mL
Solubility compared with the monohydrochloride salt ([2]; a number of media tested): substantially higher
solubility at 2 h ([2]; aqueous buffer, 0.1M Citric acid): > 5000 µg/mL
solubility at 2 h ([2]; aqueous buffer, Acetate Buffer (pH 5.0)): > 5000 µg/mL
solubility at 2 h ([2]; aqueous buffer, McIlvaine Buffer (pH 2.2)): > 5000 µg/mL
solubility at 2 h ([2]; aqueous buffer, McIlvaine Buffer (pH 3.0)): > 5000 µg/mL
solubility at 2 h ([2]; aqueous buffer, McIlvaine Buffer (pH 4.0)): > 5000 µg/mL
solubility at 2 h ([2]; aqueous buffer, McIlvaine Buffer (pH 4.5)): > 5000 µg/mL
solubility at 2 h ([2]; aqueous buffer, McIlvaine Buffer (pH 5.0)): > 5000 µg/mL
solubility at 2 h ([2]; aqueous buffer, McIlvaine Buffer (pH 6.0)): 3700 µg/mL
solubility at 2 h ([2]; aqueous buffer, McIlvaine Buffer (pH 6.8)): > 5000 µg/mL
solubility at 2 h ([2]; aqueous buffer, McIlvaine Buffer (pH 7.4)): 300 µg/mL
solubility at 2 h ([2]; aqueous buffer, Phosphate Buffer (pH 6.8)): > 5000 µg/mL
solubility at 2 h ([2]; aqueous buffer, Sorensen Buffer (pH 9.0)): 1 µg/mL
solubility at 2 h ([2]; aqueous buffer, Sorensen Buffer (pH 11)): 50 µg/mL
solubility at 2 h ([2]; Simulated intestinal fluid (FaSSIF)): 3 µg/mL
solubility at 2 h ([2]; Simulated intestinal fluid (FeSSIF)): 400 µg/mL
solubility at 2 h ([2]; water): > 2000 µg/mL
Intrinsic Dissolution Rate [3]: 201 μg/cm^2/min.
Crystallinity and polymorphic form after compression (XRPD) ([4]; 2000 N for 1 s to a tablet (diameter 5 mm)): no significant decrease in crystallinity or change in polymorphic form
Crystallinity and polymorphic form after milling (XRPD) ([4]; swing mill for 10 min. at 30 rps): slight decrease in crystallinity but no change in polymorphic form
AUD ([5]; 40 mg/kg oral): 30.3 µM·h
AUD ([5]; 80 mg/kg oral): 25.1 µM·h
Tmax ([5]; HsdHan:WIST, in vivo, 40 mg/kg oral): 2 h
Tmax ([5]; HsdHan:WIST, in vivo, 80 mg/kg oral): 2.7 h
bioavailability ([5]; HsdHan:WIST, plasma, po, 40 mg/kg dose): 50%
Cmax ([5]; HsdHan:WIST, plasma, 40 mg/kg oral): 6550 nM
Cmax ([5]; HsdHan:WIST, plasma, 80 mg/kg oral): 3520 nM
concentration at 24 h ([5]; HsdHan:WIST, in vivo, po, 40 mg/kg, Time 24.0, 40 mg/kg oral, mean n = 3, read-out: Blood Plasma Concentrations): 3.98 nM
concentration at 24 h ([5]; HsdHan:WIST, in vivo, po, 80 mg/kg, Time 24.0, 80 mg/kg oral, mean n = 3, read-out: Blood Plasma Concentrations): 5.09 nM
concentration at 24 h ([5]; Time 0.5, 40 mg/kg oral, mean n = 3, read-out: Blood Plasma Concentrations): 523 nM
concentration at 24 h ([5]; Time 0.5, 80 mg/kg oral, mean n = 3, read-out: Blood Plasma Concentrations): 274 nM
concentration at 24 h ([5]; Time 1.0, 40 mg/kg oral, mean n = 3, read-out: Blood Plasma Concentrations): 1320 nM
concentration at 24 h ([5]; Time 1.0, 80 mg/kg oral, mean n = 3, read-out: Blood Plasma Concentrations): 638 nM
concentration at 24 h ([5]; Time 2.0, 40 mg/kg oral, mean n = 3, read-out: Blood Plasma Concentrations): 6550 nM
concentration at 24 h ([5]; Time 2.0, 80 mg/kg oral, mean n = 3, read-out: Blood Plasma Concentrations): 3380 nM
concentration at 24 h ([5]; Time 4.0, 40 mg/kg oral, mean n = 3, read-out: Blood Plasma Concentrations): 3860 nM
concentration at 24 h ([5]; Time 4.0, 80 mg/kg oral, mean n = 3, read-out: Blood Plasma Concentrations): 2620 nM
concentration at 24 h ([5]; Time 6.0, 40 mg/kg oral, mean n = 3, read-out: Blood Plasma Concentrations): 1140 nM
concentration at 24 h ([5]; Time 6.0, 80 mg/kg oral, mean n = 3, read-out: Blood Plasma Concentrations): 1420 nM
Exposure values compared with the monohydrochloride salt ([5]; oral): substantially higher
Intrinsic dissolution rate compared with the monohydrochloride salt [6]: substantially higher
Intrinsic Dissolution Rate ([6]; pH of medium 2.2, 37° C.): 6844 μg/cm^2/min.
Intrinsic Dissolution Rate ([6]; pH of medium 3.0, 37° C.): 6605 μg/cm^2/min.
Intrinsic Dissolution Rate ([6]; pH of medium 4.5, 37° C.): 2457 μg/cm^2/min.
Intrinsic Dissolution Rate ([6]; pH of medium 6.8, 37° C.): 2533 μg/cm^2/min.
Intrinsic Dissolution Rate ([6]; pH of medium 7.4, 37° C.): <1 μg/cm^2/min.
Crystalline form after heating (XRPD) [7]: still succinate Type A
